Reference: patent US20060276498A1 (Wyeth, priority 2005, published 2006)
pIC50: −log10 of the molar value.

Each compound was assayed against T1, human Cot/Tpl2 kinase (Homo sapiens, UniProt P41279) (assay: Tpl2/Cot kinase assay, GST-MEK1 phosphorylation detected by ELISA (DELFIA Eu)). Details: Table 2; additional representative compounds.
T1 construct: human Cot/Tpl2 kinase construct encoding residues 30-398; 6His (N); made in house; host or cells: Sf9 insect cells (baculovirus system, BD Biosciences)
Format: biochemical

T1 sequence (P41279 30-398): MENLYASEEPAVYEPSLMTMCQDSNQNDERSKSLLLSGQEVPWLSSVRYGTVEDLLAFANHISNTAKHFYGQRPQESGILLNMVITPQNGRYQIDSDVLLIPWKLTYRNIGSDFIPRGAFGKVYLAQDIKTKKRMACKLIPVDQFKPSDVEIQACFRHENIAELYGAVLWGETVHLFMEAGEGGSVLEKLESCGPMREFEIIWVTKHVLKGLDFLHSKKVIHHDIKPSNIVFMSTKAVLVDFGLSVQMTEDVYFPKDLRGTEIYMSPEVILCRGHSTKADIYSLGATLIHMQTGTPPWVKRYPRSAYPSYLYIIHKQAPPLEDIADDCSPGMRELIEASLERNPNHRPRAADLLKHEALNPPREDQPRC

Point of comparison: `N#Cc1cnc2cnc(Nc3c[nH]cn3)cc2c1Nc1ccc(F)c(Cl)c1` [Example 140, 4-[(3-chloro-4-fluorophenyl)amino]-6-{[4(5)imidazolyl]amino}-1,7-naphthyridine-3-carbonitrile], pIC50 7.10. Against it:
- N#Cc1cnc2cnc(F)cc2c1NCc1ccc(F)c(Cl)c1 [Example 98, 4-[(3-chloro-4-fluorobenzyl)amino]-6-fluoro-1,7-naphthyridine-3-carbonitrile] — lower, < 4.40
- N#Cc1cnc2cnc(F)cc2c1Nc1ccc(Oc2ccccc2)cc1 [Example 99, 6-Fluoro-4-(4-phenoxy-phenylamino)-[1,7]naphthyridine-3-carbonitrile] — 2.40 log units lower, 4.70
- N#Cc1cnc2cnc(F)cc2c1Nc1ccc(C(F)(F)F)cc1 [Example 100, 6-fluoro-4-{[4-(trifluoromethyl)phenyl]amino}-1,7-naphthyridine-3-carbonitrile] — lower, < 4.40
- CC(C)c1ccc(Nc2c(C#N)cnc3cnc(F)cc23)cc1 [Example 101, 6-fluoro-4-[(4-isopropylphenyl)amino]-1,7-naphthyridine-3-carbonitrile] — lower, < 4.40
- N#Cc1cnc2cnc(F)cc2c1Nc1ccc2[nH]ccc2c1 [Example 102, 6-fluoro-4-(1H-indol-5-ylamino)-1,7-naphthyridine-3-carbonitrile] — lower, < 4.40
- N#Cc1cnc2cnc(F)cc2c1Nc1cccc(I)c1 [Example 104, 6-fluoro-4-[(3-iodophenyl)amino]-1,7-naphthyridine-3-carbonitrile] — lower, < 4.40
- N#Cc1cnc2cnc(F)cc2c1Nc1cccc([N+](=O)[O-])c1 [Example 105, 6-fluoro-4-[(3-nitrophenyl)amino]-1,7-naphthyridine-3-carbonitrile] — lower, < 5.00
- N#Cc1cnc2cnc(F)cc2c1Nc1ccc(Cc2ccccc2)cc1 [Example 106, 4-[(4-benzylphenyl)amino]-6-fluoro-1,7-naphthyridine-3-carbonitrile] — 0.58 log units lower, 6.52
- CN(c1ccc(F)c(Cl)c1)c1c(C#N)cnc2cnc(F)cc12 [Example 107, 4-[(3-chloro-4-fluorophenyl)(methyl)amino]-6-fluoro-1,7-naphthyridine-3-carbonitrile] — lower, < 5.00
- CN(C)CCNc1cc2c(Nc3ccc(Cc4ccccc4)cc3)c(C#N)cnc2cn1 [Example 108, 4-[(4-benzylphenyl)amino]-6-{[2-(dimethylamino)ethyl]amino}-1,7-naphthyridine-3-carbonitrile] — lower, < 5.00
- CC(C)(C)Nc1c(C#N)cnc2cnc(NCc3cccnc3)cc12 [Example 110, 4-(tert-butylamino)-6-[(pyridin-3-ylmethyl)amino]-1,7-naphthyridine-3-carbonitrile] — 0.90 log units lower, 6.20
- N#Cc1cnc2cnc(NCc3cccnc3)cc2c1NC1CC1 [Example 111, 4-(cyclopropylamino)-6-[(pyridin-3-ylmethyl)amino]-1,7-naphthyridine-3-carbonitrile] — 1.55 log units lower, 5.55
- N#Cc1cnc2cnc(NCc3cccnc3)cc2c1NC1CCCC1 [Example 112, 4-(cyclopentylamino)-6-[(pyridin-3-ylmethyl)amino]-1,7-naphthyridine-3-carbonitrile] — 0.61 log units lower, 6.49
- N#Cc1cnc2cnc(NCc3cccnc3)cc2c1NC1CCCCCC1 [Example 113, 4-(cycloheptylamino)-6-[(pyridin-3-ylmethyl)amino]-1,7-naphthyridine-3-carbonitrile] — 0.30 log units lower, 6.80
- N#Cc1cnc2cnc(NCc3cccnc3)cc2c1NC1CCCCC1 [Example 114, 4-(cyclohexylamino)-6-[(pyridin-3-ylmethyl)amino]-1,7-naphthyridine-3-carbonitrile] — 0.77 log units lower, 6.33
- CC(Nc1cc2c(Nc3ccc(F)c(Cl)c3)c(C#N)cnc2cn1)c1ccccc1 (stereo not drawn) [Example 115, 4-[(3-chloro-4-fluorophenyl)amino]-6-[(1-phenylethyl)amino]-1,7-naphthyridine-3-carbonitrile] — lower, < 4.40
- N#Cc1cnc2cnc(NCc3cccnc3)cc2c1NC1CCNCC1 [Example 116, 4-(piperidin-4-ylamino)-6-[(pyridin-3-ylmethyl)amino]-1,7-naphthyridine-3-carbonitrile] — lower, < 4.40
- N#Cc1cnc2cnc(NCCN3CCN(Cc4ccccc4)CC3)cc2c1Nc1ccc(F)c(Cl)c1 [Example 117, 6-(2-(4-benzylpiperazin-1-yl)ethylamino)-4-(3-chloro-4-fluorophenylamino)-1,7-naphthyridine-3-carbonitrile] — 1.48 log units lower, 5.62
- CC(C)(Nc1cc2c(Nc3ccc(F)c(Cl)c3)c(C#N)cnc2cn1)c1ccccc1 [Example 118, 4-[(3-chloro-4-fluorophenyl)amino]-6-[(1-methyl-1-phenylethyl)amino]-1,7-naphthyridine-3-carbonitrile] — 1.18 log units lower, 5.92
- N#Cc1cnc2cnc(NCc3ccncc3)cc2c1Nc1ccc(F)c(Cl)c1 [Example 119, 4-(3-chloro-4-fluorophenylamino)-6-(pyridin-4-ylmethylamino)-1,7-naphthyridine-3-carbonitrile] — 0.41 log units higher, 7.51
- N#Cc1cnc2cnc(NCCc3ccc(S(N)(=O)=O)cc3)cc2c1Nc1ccc(F)c(Cl)c1 [Example 120, 4-(2-(4-(3-chloro-4-fluorophenylamino)-3-cyano-1,7-naphthyridin-6-ylamino)ethyl)benzenesulfonamide] — 0.46 log units lower, 6.64
- N#Cc1cnc2cnc(NCc3cccc(Br)c3)cc2c1Nc1ccc(F)c(Cl)c1 [Example 121, 6-[(3-bromobenzyl)amino]-4-[(3-chloro-4-fluorophenyl)amino]-1,7-naphthyridine-3-carbonitrile] — 0.73 log units lower, 6.37
- N#Cc1cnc2cnc(NCCN3CCCCC3)cc2c1Nc1ccc(F)c(Cl)c1 [Example 122, 4-[(3-chloro-4-fluorophenyl)amino]-6-[(2-piperidin-1-ylethyl)amino]-1,7-naphthyridine-3-carbonitrile] — 1.50 log units lower, 5.60
- N#Cc1cnc2cnc(NCc3ccccn3)cc2c1Nc1ccc(F)c(Cl)c1 [Example 123, 4-(3-chloro-4-fluorophenylamino)-6-(pyridin-2-ylmethylamino)-1,7-naphthyridine-3-carbonitrile] — 0.21 log units lower, 6.89
- COc1ccccc1CNc1cc2c(Nc3ccc(F)c(Cl)c3)c(C#N)cnc2cn1 [Example 124, 4-[(3-chloro-4-fluorophenyl)amino]-6-[(2-methoxybenzyl)amino]-1,7-naphthyridine-3-carbonitrile] — 0.67 log units lower, 6.43
- CS(=O)(=O)c1ccc(CNc2cc3c(Nc4ccc(F)c(Cl)c4)c(C#N)cnc3cn2)cc1 [Example 125, 4-[(3-chloro-4-fluorophenyl)amino]-6-{[4-(methylsulfonyl)benzyl]amino}-1,7-naphthyridine-3-carbonitrile] — 0.54 log units higher, 7.64
- N#Cc1cnc2cnc(NCc3c(Cl)cccc3Cl)cc2c1Nc1ccc(F)c(Cl)c1 [Example 126, 4-[(3-chloro-4-fluorophenyl)amino]-6-[(2,6-dichlorobenzyl)amino]-1,7-naphthyridine-3-carbonitrile] — 2.49 log units lower, 4.61
- N#Cc1cnc2cnc(NCc3c(Cl)cccc3Cl)cc2c1NCc1c(Cl)cccc1Cl [Example 127, 4,6-bis[(2,6-dichlorobenzyl)amino]-1,7-naphthyridine-3-carbonitrile] — lower, < 4.40
- N#Cc1cnc2cnc(F)cc2c1Nc1ccc(OC(F)(F)F)cc1 [Example 128, 6-fluoro-4-{[4-(trifluoromethoxy)phenyl]amino}-1,7-naphthyridine-3-carbonitrile] — lower, < 4.40
- CCN1CCC[C@H]1CNc1cc2c(NC3CCCC3)c(C#N)cnc2cn1 [Example 129, 4-(cyclopentylamino)-6-({[(2S)-1-ethylpyrrolidin-2-yl]methyl}amino)-1,7-naphthyridine-3-carbonitrile] — 1.55 log units lower, 5.55
- CC(C)(C)Nc1c(C#N)cnc2cnc(NCc3ccc(S(C)(=O)=O)cc3)cc12 [Example 130, 4-(tert-butylamino)-6-{[4-(methylsulfonyl)benzyl]amino}-1,7-naphthyridine-3-carbonitrile] — 1.76 log units lower, 5.34
- C[C@@H](Nc1cc2c(N[C@H](C)c3ccccc3)c(C#N)cnc2cn1)c1ccccc1 [Example 131, 4,6-bis{[(1R)-1-phenylethyl]amino}-1,7-naphthyridine-3-carbonitrile] — 0.85 log units lower, 6.25
- CS(=O)(=O)c1ccc(CNc2cc3c(NCc4ccc(S(C)(=O)=O)cc4)c(C#N)cnc3cn2)cc1 [Example 132, 4,6-bis{[4-(methylsulfonyl)benzyl]amino}-1,7-naphthyridine-3-carbonitrile] — 2.33 log units lower, 4.77
- C[C@@H](Nc1cc2c(NC3CCCCCC3)c(C#N)cnc2cn1)c1ccccc1 [Example 133, 4-(cycloheptylamino)-6-{[(1R)-1-phenylethyl]amino}-1,7-naphthyridine-3-carbonitrile] — 1.06 log units lower, 6.04
- CCC(C)(C)Nc1c(C#N)cnc2cnc(NCc3cccnc3)cc12 [Example 135, 4-[(1,1-dimethylpropyl)amino]-6-[(pyridin-3-ylmethyl)amino]-1,7-naphthyridine-3-carbonitrile] — within 0.2 log units, 7.00
- CN(c1c(C#N)cnc2cnc(F)cc12)C1CCCCCC1 [Example 136, 4-[cycloheptyl(methyl)amino]-6-fluoro-1,7-naphthyridine-3-carbonitrile] — 0.66 log units lower, 6.44
- C[C@@H](Nc1cc2c(N(C)C3CCCCCC3)c(C#N)cnc2cn1)c1ccccc1 [Example 137, 4-[cycloheptyl(methyl)amino]-6-{[(1R)-1-phenylethyl]amino}-1,7-naphthyridine-3-carbonitrile] — lower, < 4.40
- C#CC(C)(C)Nc1c(C#N)cnc2cnc(NCc3cccnc3)cc12 [Example 138, 4-[(1,1-dimethylprop-2-ynyl)amino]-6-[(pyridin-3-ylmethyl)amino]-1,7-3-carbonitrile] — lower, < 4.40
- Cn1nc(C(C)(C)C)cc1Nc1c(C#N)cnc2ccc(N)cc12 [Example 139, 6-amino-4-[(3-tert-butyl-1-methyl-1H-pyrazol-5-yl)amino]quinoline-3-carbonitrile] — 0.53 log units lower, 6.57
- CCC(C)(C)Nc1c(C#N)cnc2cnc(F)cc12 [Example 141, 4-[(1,1-dimethylpropyl)amino]-6-fluoro-1,7-naphthyridine-3-carbonitrile] — lower, < 4.40
- C#CC1(Nc2c(C#N)cnc3cnc(F)cc23)CCCCC1 [Example 142, 4-[(1-ethynylcyclohexyl)amino]-6-fluoro-1,7-naphthyridine-3-carbonitrile] — 2.55 log units lower, 4.55
